# Counter-ions that a name gives are not always drawn.
# What was measured:
# [1] = system: LI90 cells, a human hepatic stellate cell line; experiment: Inhibitory effect on collagen synthesis (in vitro); assay type: cell-based; conditions: in the presence of recombinant human TGF-β1, 3H-proline labelled collagen in supernatant
# Description: Inhibitory Effect on Collagen Synthesis (In Vitro)
# LI90 cells, a human hepatic stellate cell line, were suspended in DMEM (Dulbecco's modified eagle medium) supplemented with 10% inactivated FBS (fetal bovine serum), seeded on a 12-well plate and cultured in a CO2 incubator (preset temperature: 37° C., preset CO2 concentration: 5%). After being cultured for 24 hours, the cells were washed with D-PBS (Dulbecco's phosphate buffered saline), placed in MEM (Eagle's minimum essential medium) supplemented with 0.1% inactivated FBS and then cultured in a CO2 incubator. After being cultured for 3 days, the cells were again washed with D-PBS, placed in MEM (Eagle's minimum essential medium) supplemented with 0.1% inactivated FBS and treated with or without a test compound in the presence of […] recombinant human TGF-β1 (transforming growth factor-β1) in a CO2 incubator for 16 hours. After the incubation, the cells were washed with D-PBS and the medium was replaced with MEM containing 0.25 mM ascorbate. A radio-labeled compound, ^3H-proline, was then added to the culture medium to radio-label the collagen proteins produced. After being cultured for 24 hours, the supernatant was collected and the collagen proteins were extracted from the supernatant as acid-soluble fractions. The amount of collagen produced was determined by measuring the radioactivity contained in the fractions. A concentration of test compound that produced 50% inhibition [IC50 value (nM)] on collagen synthesis was calculated by comparing the radioactivity count in a supernatant of test-compound-treated cells with that of untreated cells (control).
Structure (SMILES),melting point,IC50 [1] [nM]
"Cc1ccc(S(=O)(=O)N(C)c2ccc(Oc3ccc4cc(C(=O)N5CCN(Cc6ccc(OCC(F)(F)F)cc6)CC5)[nH]c4c3)nc2)cc1 [Example 41, 4,N-Dimethyl-N-[6-(2-{4-[4-(2,2,2-trifluoroethoxy)benzyl]-piperazine-1-carbonyl}-1H-indol-6-yloxy)pyridin-3-yl]benzene-sulfonamide]",184 to 184.2 °C,< 10
"CC(C)Oc1ccc(CN2CCN(C(=O)c3cc4ccc(Oc5ncc(N(C)S(=O)(=O)c6ccc(Cl)c(Cl)c6)cn5)cc4n3C)CC2)cc1 [Example 43, 3,4-Dichloro-N-(2-{2-[4-(4-isopropoxybenzyl)piperazine-1-carbonyl]-1-methyl-1H-indol-6-yloxy}pyrimidin-5-yl)-N-methyl-benzenesulfonamide]",191.2 to 193 °C,< 10
"COc1ccc(CN(C)C2CCN(C(=O)c3cc4cc(Oc5ccc(NC(=O)c6ccc(C(F)(F)F)cc6)cn5)ccc4n3C)CC2)cc1 [Example 232, N-[6-(2-{4-[(4-Methoxybenzyl)methylamino]piperidine-1-carbonyl}-1-methyl-1H-indol-5-yloxy)pyridin-3-yl]-4-trifluoromethyl-benzamide oxalate]",–,< 10
"COc1ccc(/C=C/CN2CCN(C(=O)c3cc4cc(Oc5ccc(NC(=O)c6ccc(C(F)(F)F)cc6)cn5)ccc4n3C)CC2)cc1.CS(=O)(=O)O [Example 357, N-[6-(2-{4-[(E)-3-(4-Methoxyphenyl)allyl]piperazine-1-carbonyl}-1-methyl-1H-indol-5-yloxy)pyridin-3-yl]-4-trifluoromethyl-benzamide methanesulfonate]",246 to 249 °C (dec.),< 10
"COc1ccc(CN2CCN(C(=O)c3cc4cc(Oc5ncc(NC(=O)c6ccc(C(F)(F)F)cc6)cn5)ccc4n3C)CC2)cc1 [Example 380, N-(2-{2-[4-(4-Methoxybenzyl)piperazine-1-carbonyl]-1-methyl-1H-indol-5-yloxy}pyrimidin-5-yl)-4-trifluoromethylbenzamide]",179 to 180 °C,< 10
"CC(C)CN1CCN(C(=O)c2cc3cc(Oc4ccc(NC(=O)c5ccc(C(F)(F)F)cc5)cn4)ccc3n2C)CC1 [Example 547, N-{6-[2-(4-isobutylpiperazine-1-carbonyl)-1-methyl-1H-indol-5-yloxy]pyridin-3-yl}-4-trifluoromethylbenzamide]",–,< 10
"Br.Cc1cc(CN2CCN(C(=O)c3cc4cc(Oc5ccc(NC(=O)c6ccc(C(F)(F)F)cc6)cn5)ccc4n3C)CC2)no1 [Example 569, N-(6-{1-Methyl-2-[4-(5-methylisoxazol-3-ylmethyl)piperazine-1-carbonyl]-1H-indol-5-yloxy}pyridin-3-yl)-4-trifluoromethyl-benzamide hydrobromide]",220 to 223 °C,–
"Br.Cn1c(C(=O)N2CCN(Cc3cnc(-c4ccc(C(F)(F)F)cc4)s3)CC2)cc2cc(Oc3ccc(NC(=O)c4ccc(C(F)(F)F)cc4)cn3)ccc21 [Example 572, N-[6-(1-Methyl-2-{4-[2-(4-trifluoromethylphenyl)thiazol-5-yl-methyl]piperazine-1-carbonyl}-1H-indol-5-yloxy)pyridin-3-yl]-4-trifluoromethylbenzamide hydrobromide]",218.9 to 220.8 °C,< 10
"Br.CCN(C(=O)Nc1ccc(C(F)(F)F)cc1)c1ccc(Oc2ccc3c(c2)cc(C(=O)N2CCN(Cc4ccccc4)CC2)n3C)nc1 [Example 580, 1-{6-[2-(4-Benzylpiperazine-1-carbonyl)-1-methyl-1H-indol-5-yl-oxy]pyridin-3-yl}-1-ethyl-3-(4-trifluoromethylphenyl)urea hydrobromide]",224 to 230 °C,–
"Br.CCN(C(=S)Nc1ccc(Cl)c(Cl)c1)c1ccc(Oc2ccc3c(c2)cc(C(=O)N2CCN(Cc4ccccc4)CC2)n3C)nc1 [Example 581, 1-{6-[2-(4-Benzylpiperazine-1-carbonyl)-1-methyl-1H-indol-5-yl-oxy]pyridin-3-yl}-3-(3,4-dichlorophenyl)-1-ethylthiourea hydrobromide]",163 to 168 °C,–
"Br.CCN(C(=O)Nc1ccc(Cl)c(Cl)c1)c1ccc(Oc2ccc3c(c2)cc(C(=O)N2CCN(Cc4ccc5c(c4)OCO5)CC2)n3C)nc1 [Example 583, 1-{6-[2-(4-Benzo[1,3]dioxol-5-ylmethylpiperazine-1-carbonyl)-1-methyl-1H-indol-5-yloxy]pyridin-3-yl}-3-(3,4-dichlorophenyl)-1-ethylurea hydrobromide]",224 to 228 °C,–

# The remaining lines, values ahead:
melting point,IC50 [1] [nM],Structure (SMILES)
227.5 to 230.3 °C,< 10,"Br.CN(C(=O)c1ccc(OC(F)(F)F)cc1)c1ccc(Oc2ccc3cc(C(=O)N4CCN(Cc5ccc(OC(CF)CF)cc5)CC4)n(C)c3c2)nc1 [Example 279, N-[6-(2-{4-[4-(2-Fluoro-1-fluoromethylethoxy)benzyl]piperazine-1-carbonyl}-1-methyl-1H-indol-6-yloxy)pyridin-3-yl]-N-methyl-4-tri-fluoromethoxybenzamide hydrobromide]"
112 to 115 °C,–,"Cc1cc(CN2CCN(C(=O)c3cc4cc(Oc5ccc(N(C)C(=O)c6ccc(C(F)(F)F)cc6)cn5)ccc4n3C)CC2)no1.O=C(O)/C=C\C(=O)O [Example 568, N-Methyl-N-(6-{1-methyl-2-[4-(5-methylisoxazol-3-ylmethyl)-piperazine-1-carbonyl]-1H-indol-5-yloxy}pyridin-3-yl)-4-tri-fluoromethylbenzamide maleate]"
211 to 215 °C,–,"Br.Br.CN(C(=O)c1ccc(C(F)(F)F)cc1)c1ccc(Oc2ccc3c(c2)cc(C(=O)N2CCN(Cc4ccc(C#N)cn4)CC2)n3C)nc1 [Example 570, N-(6-{2-[4-(5-Cyanopyridin-2-ylmethyl)piperazine-1-carbonyl]-1-methyl-1H-indol-5-yloxy}pyridin-3-yl)-N-methyl-4-trifluoromethyl-benzamide dihydrobromide]"
171 to 173 °C,–,"COc1ccc(CN2CCN(C(=O)c3cc4cc(Oc5ccc(N(C)C(=O)c6ccc(C(F)(F)F)cc6O)cn5)ccc4n3C)CC2)cc1.O=C(O)C(=O)O [Example 592, 2-Hydroxy-N-(6-{2-[4-(4-methoxybenzyl)piperazine-1-carbonyl]-1-methyl-1H-indol-5-yloxy}pyridin-3-yl)-N-methyl-4-trifluoromethyl-benzamide oxalate]"
155 to 160 °C,–,"CN(C(=O)c1ccc(C(F)(F)F)cc1O)c1ccc(Oc2ccc3c(c2)cc(C(=O)N2CCN(Cc4ccc(OC(F)F)cc4)CC2)n3C)nc1.O=C(O)C(=O)O [Example 594, N-(6-{2-[4-(4-Difluoromethoxybenzyl)piperazine-1-carbonyl]-1-methyl-1H-indol-5-yloxy}pyridin-3-yl)-2-hydroxy-N-methyl-4-tri-fluoromethylbenzamide oxalate]"

# — patent US8551999B2, “Heterocyclic compound and pharmaceutical composition thereof” (Otsuka Pharmaceutical Co., Ltd., priority 2007, dated 2013)
